Laboratory results reported in US20250354970A1, “SYSTEMS, METHODS, AND APPARATUSES FOR CHARACTERIZING RELEASE PROFILES FOR LONG-ACTING INJECTABLE MEDICATIONS” (Gilead Sciences, Inc., priority 2024, published 2025).

Assay: Unit input response, intravenous bolus plasma concentration
Assay type: in vivo
Conditions: human, read-out: Plasma Concentration of API A
Description: In predicting plasma concentration time profiles, we used two steps. First, we time scaled in vitro release profiles to use as our reference. Second, we obtained convolution of time-scaled in vitro release profile with unit input response (UIR) we obtained using intravenous bolus dose profile in a physiologically based pharmacokinetic model (PBPK).
FIG. 18 illustrates use of convolution of time-scaled in vitro release profile data (panel A, Table 4) with unit input response (UIR) obtained using an intravenous bolus dose (panel B, Table 5) to generate predictive plasma concentration-time profiles (panel C, Table 6). Panel A includes time-scaled mean in vitro release profiles of various solution-based subcutaneous long acting injectables of API. Panel C includes observed versus predicted mean plasma concentration-time profiles in humans for various solution-based subcutaneous long acting injectables of API A.

- concentration at 0 days (0.00 days): 0 ng/mL
- concentration at 0.04 days (0.04 days): 162 ng/mL
- concentration at 0.08 days (0.08 days): 27.7 ng/mL
- concentration at 0.17 days (0.17 days): 14 ng/mL
- concentration at 0.25 days (0.25 days): 7.73 ng/mL
- concentration at 0.33 days (0.33 days): 5.71 ng/mL
- concentration at 0.5 days (0.50 days): 4.68 ng/mL
- concentration at 1 days (1.00 days): 4.33 ng/mL
- concentration at 2 days (2.00 days): 4.37 ng/mL
- concentration at 3 days (3.00 days): 4.29 ng/mL
- concentration at 5 days (5.00 days): 3.49 ng/mL
- concentration at 7 days (7.00 days): 3.45 ng/mL
- concentration at 9 days (9.00 days): 2.84 ng/mL
- concentration at 11 days (11.00 days): 2.61 ng/mL
- concentration at 14 days (14.00 days): 2.33 ng/mL
- concentration at 20.92 days (20.92 days): 1.71 ng/mL
- concentration at 27.92 days (27.92 days): 1.1 ng/mL
- concentration at 34.96 days (34.96 days): 0.71 ng/mL
- concentration at 41.96 days (41.96 days): 0.43 ng/mL
- concentration at 55.96 days (55.96 days): 0.25 ng/mL
SMILES: CC(C)(C#Cc1ccc(-c2ccc(Cl)c3c(NS(C)(=O)=O)nn(CC(F)(F)F)c23)c([C@H](Cc2cc(F)cc(F)c2)NC(=O)Cn2nc(C(F)(F)F)c3c2C(F)(F)[C@@H]2C[C@H]32)n1)S(C)(=O)=O [API A, Lenacapavir]
